From patent publication US5157023A, “Antipyretic and anti-inflammatory lys pro val compositions and method of use” (priority 1991, dated 1992)
Peptide text beside a SMILES is read from it.

Columns and labels:
[1] = test system: normal body temperature; assay: body temperature of afebrile rabbits; type: in vivo
Description: (§1) Experimental rabbits that were to be used in the antipyresis study were restrained in conventional holders and a thermistor probe (Yellow Springs International, No. 701) was inserted about 100 mm into the rectum and taped to the tail. In certain experiments, another thermistor probe (Yellow Springs International, No. 709) was attached to the dorsal surface of the ear. Temperature recordings were made every 10 minutes via a MINC 11 online computer connected to a digital temperature recorder (Datalogger, United Systems Corp.) At least 1 hour was allowed after the probes were inserted before injections were made, and all experiments were separated by at least 48 hours. Experiments were run in an environmental chamber at 23~C.
Injections of the tripeptide were given 30 minutes after the pyrogen, into the intraventricular cannula. […] Decreases in fever, calculated as percent reduction of the area under the control fever curve over the apparent duration of action of the peptide (1.5 hours), were 24%, 31%, and 48% for the 0.5, 1.0, and 2.0 milligram doses, respectively. Similarly, intravenous administration of 2, 20 and 200 milligrams of the tripeptide reduced fever 34, 27 and 67% , respectively, during the 1.5 hour period after injection of the leukocytic pyrogen. Control saline injections, centrally administered, caused no significant reduction in body temperature.

[2] = test system: leukocytic pyrogen-induced fever; assay: in vivo rabbit pyresis assay (leukocytic pyrogen-induced fever); parameters: species or system New Zealand white rabbits; conditions: for decrease in fever, percent reduction of the area under the control fever curve: intraventricular (central), 30 min after pyrogen, over 1.5 hours; for fever reduction: 1.5 hour period after injection of leukocytic pyrogen
Description: Leukocytic pyrogen is a molecule capable of producing transient fever in mammals which is produced by incubating rabbit leukocytes with Salmonella typhosa endotoxin. More specifically, to produce leukocytic pyrogen, donor rabbits were first sacrificed by decapitation. Blood was collected in a heparinized pryrogen-free beaker. Heparinized 50-ml glass centrifuge tubes were filled 3/4 full with whole blood, saline was added to fill each tube, and the solution was gently mixed. The tubes were then centrifuged at low speed for 20 min. The buffy coat was drawn off and placed in pyrogen-free flasks. Lactate Ringer's solution equal in volume to one-half that of the red cell layer, was added along with Salmonella typhosa endotoxin (Difco, No. 0901) also in Ringer's solution (1 ug/ml), to the buffy coat. The mixture was incubated at 38~C in a shaking water bath for 4 hours. The solution was centrifuged, filtered (Nalgene, 0.20 microns), and the leukocytic pyrogen-containing filtrate was stored at 4~C. Samples of leukocytic pyrogen were heated to 70~C for 2 hours and injected intravenously to test for endotoxin contamination.
Injections were 50 ul in volume and were followed by a 20 ul saline flush. Intravenous injections were made via the marginal ear vein. Intravenous leukocytic pyrogen injections were 0.07 ml of a stock solution made up of a mixture of leukocytic pyrogen derived from 4 donors. When injected, leukocytic pyrogen stock solution was diluted with nonpyrgenic isotonic saline. Injections were made with commercial nonpyrogenic syringes. Glassware was washed with chromic acid, rinsed with deionized water and heated to 200~C for a minimum of 2 hours to insure that it was pyrogen free.
Adult New Zealand white rabbits were used for the development of an antipyretic assay. The rabbits were housed individually in a 21-23~Cenvironment with a 12 hour light/dark cycle; food and water were available ad libitum. […]. Rabbits were placed in a Kopf rabbit stereotaxic instrument and a stainless steel cannula (No. 201, David Kopf Instruments)was inserted into a lateral ventricle at a point 1.0 mm anterior to the bregma and 2.7 mm lateral to the midline. The cannula was lowered until cerebrospinal fluid appeared inside the well of the cannula. Stainless steel screws and dental acrylic were used to anchor the cannula to the caluarium. Benzathine penicillin G (Bicillin, Wyeth Laboratories) was given post-operatively (150,000 units intramuscularly).
as §1
The average thermal response, the mean change in temperature (~C) over the duration of the response measured in hours, was calculated for each response and the paired t-test was used for statistical analysis of the data. The time period over which the experimental anti-pyretic temperature response was determined was generally set by the duration of the control response for the individual animal. The control response begins with the first deviation from baseline temperature and continues until the temperature returns to baseline or to the point nearest the baseline within 5 hours. The mean change in temperature for each 10 minute intervals during this time period are summed and divided by the total number of 10 minute periods. […]

[3] = test system: histamine-mediated increase in capillary permeability; assay: skin-blueing test (Sparrow/Wilhelm assay), histamine-induced blue weals; type: in vivo, New Zealand white rabbits; conditions: for relative intensity of histamine-induced blue weals, experimental (E) vs control (C): scored 30 minutes after histamine
From the text: This model relies on the principal that localized, subcutaneous injections of histamine will result in a localized increase in capillary permeability. When the test animal has been pretreated with blue dye intravenously, the localized histamine injections will elicit blue-colored "weals" around the injection site. Thus, by preadministration of an effective anti-inflammatory agent, the blue color of the histamine-induced weals will be much less pronounced, with the amount of color reduction being dependent on the relative amount and/or potency of the anti-inflammatory agent used.
Non-moulting New Zealand white rabbits were used for the sparrow/Wilhelm assay. The skin of the rabbits back was closely clipped 1-2 days previous to the experiment, but not dipilated, and the rabbits were kept warm until tested. Various amounts of the protected tripeptide (diacetyl-L-lys-l-Pro-L-Val-NH2) were injected intravenously into an ear vein approximately 15 minutes prior to intravenous injection of blue dye. Control rabbits received sham injections. Fifteen minutes following injection of the agent or sham, the rabbits received approximately 30 mg/kg of Pontamine blue dye as a 2.5% solution in 0.45% saline, into an exposed vein.
Immediately following dye injections, histamine was injected intradermally in a 0.10 ml volume (1.25 mg histamine 0.1 ml volume) at several sites on each side of the spine. In all, one vertical row of six injections were made on each side of the spine. The relative intensity of the resultant blue weals were scored by an independent observer 30 minutes after histamine injection.

[4] = test system: carrageenan-induced swelling of rat paws; assay: carrageenan/rat paw edema assay; type: in vivo, male Sprague-Dawley rats; conditions: for overall reduction of carrageenan-induced swelling relative to hydrocortisone: approximately equal weights, intraperitoneal
Description: A second in vivo bioassay for anti-inflammatory activity was conducted in which the action of the tripeptide was compared to that of hydrocortisone. In this assay, the two agents were given at similar doses and tested for their independent ability to inhibit carrageenan-induced swelling of rats paws. This assay, the rat paw edema test, was conducted generally as it is typically performed in the art, for example, as described by Winter et al. (1962), Proc. Soc. Exp. Biol. Med., 111:544 or in U.S. Pat. No. 4,150,137.
Briefly, the assay was performed as follows. Each of twenty-four male Sprague-Dawley rats was assigned to one of four groups: tripeptide treatment and controls (matched according to body weight and initial paw volume), hydrocortisone treatment and matched controls. The volume of the right rear paw of the test and control animals was determined using standard procedures and a mercury displacement volumetric technique. An intraperitoneal injection of the tripeptide (Ac-Lys-Pro-Val-NH2, 100 mg/kg, N=6), of hydrocortisone (100 mg/kg, N=6), or saline (matched volume, N=12) was given to each rat. One hour later 0.5 ml of 1% lambda carrageenan in saline solution was injected into the right rear paw of the animals and the paw volume was again recorder (baseline measure). […] Thereafter paw volume was measured each hour for out hours. For comparison of the effects of the two treatments, paw volume of experimental animals measured at hourly intervals was expressed as a percentage of the volume change of their respective matched controls.

## [Cl][Cu][Cl] [copper ions, cupric chloride]
[1]; doses used to enhance the protected peptide
  effect of copper ions alone on normal temperature: no effect on normal temperature

## CC(C)[C@H](NC(=O)[C@@H]1CCCN1C(=O)[C@@H](N)CCCCN)C(=O)O [L-Lys-L-Pro-L-val] (H-Lys-Pro-Val-OH)
[2]; 0.5 milligram dose
  decrease in fever, percent reduction of the area under the control fever curve: 24%
[2]; 1.0 milligram dose
  decrease in fever, percent reduction of the area under the control fever curve: 31%
[2]; 2.0 milligram dose
  decrease in fever, percent reduction of the area under the control fever curve: 48%
[2]; central administration
  duration of (antipyretic) action: 1.5 h
[2]; intravenous 2 milligrams
  fever reduction: 34%
[2]; intravenous 20 milligrams
  fever reduction: 27%
[2]; intravenous 200 milligrams
  fever reduction: 67%
[1]; injections of 200 milligrams
  reduction in body temperature of afebrile rabbits: no reduction in body temperature

## diacetyl-L-Lysyl-L-Prolyl-L-Valyl-NH2 [protected tripeptide]
[2]; 0.5 mg, central administration
  reduction of fever induced by intravenous leukocytic pyrogen: more than 50%
[2]; central administration
  antipyretic potency relative to the unprotected tripeptide: at least four
  duration of (antipyretic) action: at least four
[2]; rabbit pyresis assay, summary statement
  activity relative to the unprotected species on a weight basis: approximately twice
[3]; 0.625 ug/kg body weight intravenously
  relative intensity of histamine-induced blue weals, experimental (E) vs control (C): No difference
[3]; 1.25 ug/kg body weight intravenously
  relative intensity of histamine-induced blue weals, experimental (E) vs control (C): E lighter than C
[3]; 5 ug/kg body weight intravenously
  relative intensity of histamine-induced blue weals, experimental (E) vs control (C): E lighter than C
[3]; 10 ug/kg body weight intravenously
  relative intensity of histamine-induced blue weals, experimental (E) vs control (C): E lighter than C
[3]; intravenous
  lowest intravenous dosage reducing histamine-mediated increase in capillary permeability: 1.25 ug/kg body weight
[3]; rabbit, in vivo
  lowest dosage eliciting a demonstrable reduction in histamine-mediated vascular permeability to vital dyes: about 1 microgram/kilogram
[4]; 100 mg/kg intraperitoneal each, 1 h before carrageenan, hours after the first hour, p>0.20
  inhibition of paw edema compared with hydrocortisone: no significant difference
[4]; listed as diacetyl-Lys-Pro-Val-NH2
  overall reduction of carrageenan-induced swelling relative to hydrocortisone: roughly equivalent
[4]; listed as protected Lys-Pro-Val tripeptide
  overall reduction of carrageenan-induced swelling relative to hydrocortisone: commensurate with hydrocortisone

## C[C@]12CCC(=O)C=C1CC[C@@H]1[C@@H]2[C@@H](O)C[C@@]2(C)[C@H]1CC[C@]2(O)C(=O)CO [hydrocortisone, reference compound]
[4]; 100 mg/kg intraperitoneal, first hour after carrageenan, p<0.05 Mann-Whitney vs tripeptide
  inhibition of paw swelling in the first hour: markedly inhibited swelling
